Data taken from BindingDB's records for doi:10.7270/Q2W37TT2 (Johns Hopkins Ion Channel Center, 2011).

Biological target: Potassium voltage-gated channel subfamily KQT member 2 (Rattus norvegicus, UniProt O88943)
Assay: KCNQ2 potassium channel inhibitors, dose response, cell-based, automated electrophysiology, set II, rat KCNQ2 (AID 588637)

Chain of Potassium voltage-gated channel subfamily KQT member 2 (O88943 whole entry): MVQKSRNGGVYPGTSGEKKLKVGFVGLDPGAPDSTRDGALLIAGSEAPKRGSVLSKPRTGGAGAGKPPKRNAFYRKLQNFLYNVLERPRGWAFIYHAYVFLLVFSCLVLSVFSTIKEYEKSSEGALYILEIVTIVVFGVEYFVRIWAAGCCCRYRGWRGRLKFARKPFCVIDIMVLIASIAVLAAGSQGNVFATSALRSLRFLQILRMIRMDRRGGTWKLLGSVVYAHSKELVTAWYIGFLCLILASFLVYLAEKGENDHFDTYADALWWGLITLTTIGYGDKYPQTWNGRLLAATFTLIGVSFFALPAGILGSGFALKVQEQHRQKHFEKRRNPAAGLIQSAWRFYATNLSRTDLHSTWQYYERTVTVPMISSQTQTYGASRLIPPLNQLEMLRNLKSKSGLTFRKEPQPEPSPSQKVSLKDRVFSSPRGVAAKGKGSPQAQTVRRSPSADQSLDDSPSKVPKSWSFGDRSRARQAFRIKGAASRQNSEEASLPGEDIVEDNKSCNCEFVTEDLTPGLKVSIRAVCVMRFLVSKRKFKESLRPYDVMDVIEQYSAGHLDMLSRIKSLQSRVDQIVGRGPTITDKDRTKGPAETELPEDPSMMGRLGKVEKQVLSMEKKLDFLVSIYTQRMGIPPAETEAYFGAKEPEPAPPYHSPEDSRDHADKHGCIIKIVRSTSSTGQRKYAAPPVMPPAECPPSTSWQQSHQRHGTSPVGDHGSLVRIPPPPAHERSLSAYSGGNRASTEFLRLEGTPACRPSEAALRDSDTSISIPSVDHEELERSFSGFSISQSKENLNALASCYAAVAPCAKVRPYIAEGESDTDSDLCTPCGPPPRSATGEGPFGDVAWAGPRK

SMILES | IC50 [µM]
COc1ccc(-[n+]2c(-c3ccccc3)cc(-c3ccc(C)cc3)cc2-c2ccccc2)cc1 | 11.1
CC(N=Nc1nc(N2CCCCCC2)nc(N2CCCCCC2)n1)c1ccccc1 (configuration not stated) [(1E)-1-phenylethanone (4,6-diazepan-1-yl-1,3,5-triazin-2-yl)hydrazone] | 1.62
